Experimental data taken from patent US6518012B1, “Method for regulating the expression of MHC antigens and CD40 by inhibitors of histone deacetylation” (Health Research, Inc., priority 1999, dated 2003).

Legend:
CIITA mRNA = CIITA mRNA by RT-PCR and real-time PCR in mouse tumor cells Colon 26 and J558; type: cell-based; conditions: for CIITA fold increase / expression of CIITA: Colon 26; for CIITA fold increase: real-time PCR; for expression of CIITA: standard RT-PCR at 35 cycles; for CIITA mRNA activation: titration with different concentrations of TSA for 12 hours, RT-PCR and real-time PCR
Method: To determine the effect of DAIs on HLA-DRα mRNA, cytoplasmic RNA was isolated from untreated and treated human trophoblast cell line JAR using standard techniques (RNeasy System from Qiagen). Standard PCR was performed using primers for DR and CIITA (Murphy et al., 1998, Reprod Dev., Chin et al., 1994, Immunity 1:687-697). Other primers used included human and mouse GAPDH (Clontech) and forward primer 5′-[…]-3′ (SEQ ID NO:25) and reverse primer 5′-[…]-3′ (SEQ ID NO:26) for mouse CIITA. PCR products were amplified with GOLD Taq for 10 min at 95° C., then 95° C. for 30 sec, 60° C. for 60 sec (25-45 cycles), then an extension at 60° C. for 10 min.
(§1) In order to obtain more quantitative information on fold changes in DR and CIITA after treatment with the deacetylase inhibitors, a real time fluorescence technique capable of quantitating low copy numbers of transcripts was carried out as follows. Oligonucleotide primers and TaqMan 5′-6-FAM and 3′-TAMRA-labeled probes were synthesized in the RPCI Biopolymer Facility. Primer and probe sequences are listed under Sequence Listing and also in FIG. 9. Sequences were designed using standard software (PrimerExpress software, PE Biosystems) except for human GAPDH.
(§2) Realtime PCR reactions contained TaqMan Universal PCR Master Mix (PE Biosystems), primers at 300 nM, and probes at optimal concentrations (150-225 nM depending on gene). Reactions were carried out on an ABI PRISM 7700 Sequence Detection System (PE Biosystems). Cycling conditions were 50° C. for 2 min, 95° C. for 10 min, then 60 cycles of 95° C. for 15 sec, 60° C. for 1 min. PCR samples were run in triplicate. The detection system and quantitative PCR was carried out as described by Williamson et al. (1995, Genet Res. 65:83-93). The threshold cycle number CT corresponded to the cycle number, at which the fluorescent emission reaches 10 standard deviations above the mean fluorescent emission, measured during the early ‘baseline’ cycles of the PCR. The CT values for triplicates were averaged and normalized to GAPDH levels. […] In such cases, in order to calculate a minimum fold change for other samples in the same group, the CT value was arbitrarily set at 40. […] Assuming reverse transcription efficiencies were approximately the same for each sample, relative amounts of mRNA using the comparative CT method. Fold changes in mRNA levels were calculated as 2^x where x=the difference between normalized CT values of the control and experimental samples.
To determine if the effect of DAIs on MHC class II was manifested in other tumors and in different species, the effect of TSA was tested on four commonly used mouse tumor models: the SaI fibrosarcoma, the Colon 26 adenocarcinoma, the J558 plasmacytoma and the P815 mastocytoma. TSA induced class II in all four mouse tumors examined, while the effects of IFNγ were variable (FIG. 4). Data presented for each cell line represents optimal incubation time and concentration of TSA and is compared with 100 U/ml of IFNγ at the same time point. Numbers over bars represents fold changes. […] Colon 26 and J558 that differed strikingly in their reactivity to IFNγ were selected for further evaluation. RT-PCR and real time PCR was used to examine induction of CIITA and IAα by TSA and IFNγ. A20, a constitutively positive B cell line was used as a positive control. The results are shown in FIGS. 5A-D. The numbers over bars represent fold changes. […] Since the classical IFNγ inducible genes IRF-1 and GBP as well as MHC class I mRNA were not induced by IFNγ in J558 (data not shown), this cell line may have a signaling defect in the IFNγ pathway. Unexpectedly however, and unlike either the MC or Colon 26 cells, TSA induced both CIITA (102-fold) and Iα (537-fold) in J558 as shown in FIGS. 5B and 5D.

CD40 mRNA = CD40 mRNA by real-time PCR in Colon 26 and J558; type: cell-based, mouse
Method: as §1, §2
This embodiment illustrates the effect of DAIs on costimulatory molecules. Because of the importance of costimulatory molecules in the cellular activation mechanism involving MHC complexes, the effect of DAIs on the expression of B7-1, B7-2 and CD40 genes was investigated by real-time PCR as well as RT-PCR. While no consistent changes in B7-1 and B7-2 were detected (data not shown), CD40 expression was enhanced by TSA in all three cell types (FIGS. 7A, B, C). MC cells constitutively expressed low levels of CD40 and IFNγ enhanced CD40 mRNA levels 5-fold while TSA elicited a 12-fold increase at 24 hours (FIG. 7A). […] GADPH mRNA remained essentially unchanged with both the primer sites used in RT-PCR and real-time PCR. The lack of induction of CD40 by IFNγ in J558 cells is consistent with the failure of IFNγ to activate other IFNγ inducible genes.

[1] = test system: MHC class II protein on the cell surface; test: Cell surface MHC class II protein by flow cytometry on SK-N-MC; type: cell-based, human; conditions: for expression of MHC class II protein on the cell surface: flow cytometry, 50 nM TSA for 48 hours, IFNγ 100 U/ml same time
HLA-DRα mRNA = HLA-DRα mRNA by standard PCR and real-time PCR in human cell lines JAR and SK-N-MC; type: cell-based; conditions: for fold increase in expression of DR: MC cells, real time PCR, 100 nM TSA 24 hr, NaBu 1 mM 48 hr, IFNγ any concentration or time point; for levels of mRNA for HLA-DRα (DR): SK-N-MC, RT-PCR, 100 nM TSA 24 hours, 1 mM NaBu 48 hours, IFNγ
[2] = Colon 26, 60 cycles, 100 U/ml IFNγ for 24 hours, TSA (12 and 48 hours)
[3] = J558, TSA 25 nM for 24 hours, IFNγ

Row | Molecule | CIITA fold increase (CIITA mRNA) | expression of CIITA (CIITA mRNA) | CIITA fold induction (CIITA mRNA; J558, RT-PCR and real-time PCR (FIGS. 5B and 5D)) | CIITA mRNA activation (CIITA mRNA; J558) | CD40 mRNA fold increase (CD40 mRNA; [2]) | CD40 mRNA fold increase (CD40 mRNA; [3]) | cells positive for class II expression ([1]; TSA concentration used in FIG. 8 (50 nM for 48 hours)) | expression of MHC class II protein on the cell surface [1] | fold increase in expression of DR (HLA-DRα mRNA) | levels of mRNA for HLA-DRα (DR) (HLA-DRα mRNA)
1 | CC(/C=C/C(=O)NO)=C\[C@@H](C)C(=O)c1ccc(N(C)C)cc1 [TSA, Trichostatin A] | absence | not detected | 102 fold | induced | 147 fold | 161 fold | 29% | significantly induced | 108 fold | substantial increase
2 | IFNγ: gamma-interferon, cytokine used as comparator at 100 U/ml | 20 fold | induced | – | failed to activate | undetectable | did not change | – | did not induce | did not stimulate | cannot be induced
